Data set [1] deals with IL-1β production in PMA-differentiated THP-1 cells. Description: IL-1β production in PMA-differentiated THP-1 cells stimulated with gramicidin (hTHP-1 assay). Conditions: Homo sapiens, gramicidin 5 μM, 2% fetal bovine serum. Format: cell-based. On the procedure: Procedure 1: IL-1β Production in PMA-Differentiated THP-1 Cells Stimulated with Gramicidin.
THP-1 cells were purchased from the American Type Culture Collection and sub-cultured according to instructions from the supplier. Cells were cultured in complete RPMI 1640 (containing 10% heat inactivated FBS, penicillin (100 units/ml) and streptomycin (100 μg/ml)), and maintained in log phase prior to experimental setup. Prior to the experiment, compounds were dissolved in dimethyl sulfoxide (DMSO) to generate a 30 mM stock. The compound stock was first pre-diluted in DMSO to 3, 0.34, 0.042 and 0.0083 mM intermediate concentrations and subsequently spotted using Echo550 liquid handler into an empty 384-well assay plate to achieve desired final concentration (e.g. 100, 33, 11, 3.7, 1.2, 0.41, 0.14, 0.046, 0.015, 0.0051, 0.0017 μM). DMSO was backfilled in the plate to achieve a final DMSO assay concentration of 0.37%. The plate was then sealed and stored at room temperature until required.
THP-1 cells were treated with PMA (Phorbol 12-myristate 13-acetate) (20 ng/ml) for 16-18 hours. On the day of the experiment the media was removed and adherent cells were detached with trypsin for 5 minutes. Cells were then harvested, washed with complete RPMI 1640, spun down, and resuspended in RPMI 1640 (containing 2% heat inactivated FBS, penicillin (100 units/ml) and streptomycin (100 μg/ml). The cells were plated in the 384-well assay plate containing the spotted compounds at a density of 50,000 cells/well (final assay volume 50 μl). Cells were incubated with compounds for 1 hour and then stimulated with gramicidin (5 μM) (Enzo) for 2 hours. Plates were then centrifuged at 340 g for 5 min. Cell free supernatant (40 μL) was collected using a 96-channel PlateMaster (Gilson) and the production of IL-1β was evaluated by HTRF (cisbio). The plates were incubated for 18 h at 4° C. and read using the preset HTRF program (donor emission at 620 nm, acceptor emission at 668 nm) of the SpectraMax i3x spectrophotometer (Molecular Devices, software SoftMax 6). A vehicle only control and a dose titration of CRID3 (100-0.0017 μM) were run concurrently with each experiment. Data was normalized to vehicle-treated samples (equivalent to 0% inhibition) and CRID3 at 100 μM (equivalent to 100% inhibition).
Procedure 2: IL-1β Production in PMA-Differentiated THP-1 Cells Stimulated with Gramicidin.
THP-1 cells were purchased from the American Type Culture Collection and sub-cultured according to instructions from the supplier. Prior to experiments, cells were cultured in complete RPMI 1640 (containing 10% heat inactivated FBS, penicillin (100 units/ml) and streptomycin (100 μg/ml)), and maintained in log phase prior to experimental setup. Prior to the experiment THP-1 were treated with PMA (Phorbol 12-myristate 13-acetate) (20 ng/ml) for 16-18 hours. Compounds were dissolved in dimethyl sulfoxide (DMSO) to generate a 30 mM stock. On the day of the experiment the media was removed and adherent cells were detached with trypsin for 5 minutes. Cells were then harvested, washed with complete RPMI 1640, spun down, resuspended in RPMI 1640 (containing 2% heat inactivated FBS, penicillin (100 units/ml) and streptomycin (100 μg/ml). The cells were plated in a 384-well plate at a density of 50,000 cells/well (final assay volume 50 μl). Compounds were first dissolved in assay medium to obtain a 5× top concentration of 500 μM. 10 step dilutions (1:3) were then undertaken in assay medium containing 1.67% DMSO. 5× compound solutions were added to the culture medium to achieve desired final concentration (e.g. 100, 33, 11, 3.7, 1.2, 0.41, 0.14, 0.046, 0.015, 0.0051, 0.0017 μM). Final DMSO concentration was at 0.37%. Cells were incubated with compounds for 1 hour and then stimulated with gramicidin (5 μM) (Enzo) for 2 hours. Plates were then centrifuged at 340 g for 5 min. […]

Data set [2] is described as follows: Colon pharmacokinetics in mice. Type of data set: in vivo. The note with it: 30 mg/kg oral gavage in 0.5% methyl-cellulose in water, male C57BL/6 mouse, colon conc. to plasma conc. ratio at 8 h; read-out: Mouse TD Colon/Plasma @ 8 h. The procedure:
Assay 2: Colon Pharmacokinetics in Mice
The test compound was formulated in 0.5% methyl-cellulose in water and dosed via oral gavage at 30 mg/kg to Male C57BL/6 Mouse. At various time points (typically 15 min, 30 min, 1, 2, 4, 6 and 8 h) post dosing, blood samples were removed via cardiac […] puncture and intact colons were excised from the […]. Blood samples were centrifuged at 1500×g for 15 min to collect plasma. At the terminal time point each individual animal is anaesthetized, abdominal cavity is opened and from 2 cm below the caecum a 4 cm sample of the colon is dissected, cut open on the longitudinal axis and the solid contents removed by flushing with 2 mL of physiological fluid. The colon was further washed by putting it in 5 mL of physiological saline and shaken for 1 minute. The colon was pet dry weighed and transferred in 2 mL tubes. Colon will be weighted and homogenized with water by tissue weight (g) to water volume (mL) at ratio 1:3 before analysis. The actual concentration is the detected value multiplied by the dilution factor. A colon to plasma ratio was determined as the ratio of the colon conc. to the plasma conc. in pg hr/g. at 8 h time point.

`CC(C)c1cc(-c2ccc3c(c2)COCC3)cc(C(C)C)c1CC(=O)NS(=O)(=O)c1sc(C(C)(C)O)nc1CO` [Compound 101]: the IC50 in data set [1] (class symbols) was 1000 to 5000 nM.

As to `CC(C)c1cc2c(c(C(C)C)c1CC(=O)NS(=O)(=O)c1sc(C(C)(C)O)nc1CO)COC2` [Compound 102], the IC50 in data set [1] (class symbols) lay in the range of 1000 to 5000 nM.

For the compound `COc1cc(S(=O)(=O)NCCCO)ccc1S(=O)(=O)NC(=O)Cc1c(C(C)C)cc(C#N)c(F)c1C(C)C` [Compound 103], in data set [1] (class symbols), the IC50 lay within 1000 to 5000 nM.

`CC(C)c1ccc(C#N)c(C(C)C)c1CC(=O)NS(=O)(=O)c1sc(C(C)(C)O)nc1CO` [Compound 104] registered an IC50 in data set [1] (class symbols) of 5000 to 30000 nM.

For `CC(C)c1c(F)c(C#N)cc(C2CC2)c1CC(=O)NS(=O)(=O)c1sc(C(C)(C)O)nc1CO` [Compound 105], in data set [1] (class symbols), the IC50 was in the range of 1000 to 5000 nM.

In turn, `COc1cc(S(=O)(=O)NCCO)ccc1S(=O)(=O)NC(=O)Cc1c(C(C)C)cc(C#N)c(F)c1C(C)C` [Compound 106] had an IC50 in data set [1] (class symbols) of 5000 to 30000 nM.

`CNS(=O)(=O)c1ccc(S(=O)(=O)NC(=O)Cc2c(C(C)C)cc(C#N)c(F)c2C(C)C)c(O)c1` [Compound 107]: the IC50 in data set [1] (class symbols) lay in the range of 200 to 1000 nM.

In data set [1] (class symbols), `CC(C)c1cc(C#N)c(F)c(C(C)C)c1CC(=O)NS(=O)(=O)c1sc(C(C)(C)O)nc1CCO` [Compound 108] returned an IC50 of 200 to 1000 nM.

`CC(C)c1cncc(C(C)C)c1CC(=O)NS(=O)(=O)c1sc(C(C)(C)O)nc1CO` [Compound 109] yielded an IC50 in data set [1] (class symbols) of 5000 to 30000 nM.

Regarding `CNS(=O)(=O)c1ccc(S(=O)(=O)NC(=O)Cc2c(C(C)C)cc(C#N)c(F)c2C(C)C)c(C(N)=O)c1` [Compound 111], in data set [1] (class symbols), the IC50 is 5000 to 30000 nM.

As for `CNS(=O)(=O)c1ccc(S(=O)(=O)NC(=O)Cc2c(C(C)C)cc(C#N)c(F)c2C(C)C)c(C(=O)N(C)C)c1` [Compound 112], in data set [1] (given as numeric bound), the concentration for half-maximal inhibition (IC50) is greater than 100000 nM.

In turn, `CNS(=O)(=O)c1ccc(S(=O)(=O)NC(=O)Cc2c(C(C)C)cc(C#N)c(F)c2C(C)C)c(C(=O)O)c1` [Compound 114] returned an IC50 in data set [1] (given as numeric bound) greater than 100000 nM.

Regarding `CNS(=O)(=O)c1ccc(S(=O)(=O)NC(=O)Cc2c(C(C)C)cc(COC)cc2C(C)C)c(CO)c1` [Compound 116], in data set [1] (class symbols), the IC50 lay in the range of 1000 to 5000 nM.

For the compound `CNS(=O)(=O)c1ccc(S(=O)(=O)NC(=O)Cc2c(C(C)C)cc(C#N)c(F)c2C(C)C)c(OC)c1` [Compound 117], the Kp at 8 h in data set [2] stood at 3380. Moreover, in data set [1] (class symbols), the IC50 was in the range of 200 to 1000 nM.

In turn, `COCc1cc(C(C)C)c(CC(=O)NS(=O)(=O)c2sc(C(C)(C)O)nc2CO)c(C(C)C)c1` [Compound 118] had an IC50 in data set [1] (class symbols) of 1000 to 5000 nM.

On to `CCC(C)c1cc(C#N)cc(C(C)C)c1CC(=O)NS(=O)(=O)c1sc(C(C)(C)O)nc1CO` (stereo not drawn) [Compound 119], for which the Kp at 8 h in data set [2] was 6720. In addition, the IC50 in data set [1] (class symbols) was 200 to 1000 nM.

Regarding `CNS(=O)(=O)c1ccc(S(=O)(=O)NC(=O)Cc2c(C(C)C)cc(C#N)c(F)c2C(C)C)c(C(=O)OC)c1` [Compound 120], in data set [1] (class symbols), the IC50 is 5000 to 30000 nM.

Turning to `CC(C)Cc1cc(C#N)cc(C(C)C)c1CC(=O)NS(=O)(=O)c1sc(C(C)(C)O)nc1CO` [Compound 122], the Kp at 8 h in data set [2] was found to be 1480. The IC50 in data set [1] (class symbols) fell in the range of 1000 to 5000 nM.

For `Cc1cc(C(C)(C)O)c(CO)cc1S(=O)(=O)NC(=O)Cc1c(C(C)C)cc(C#N)cc1C(C)C` [Compound 123], the IC50 in data set [1] (class symbols) lay within 5000 to 30000 nM.

`CC(C)c1cc(C#N)c(F)c(C(C)C)c1CC(=O)NS(=O)(=O)c1ccc(S(=O)(=O)NC(C)(C)C)cc1CO` [Compound 124] displayed an IC50 in data set [1] (given as numeric bound) greater than 100000 nM.

Take `CC(C)c1cc(C#N)c(F)c(C(C)C)c1CC(=O)NS(=O)(=O)c1cc(CO)c(C(C)(C)O)cc1F` [Compound 125]: the IC50 in data set [1] (class symbols) was in the range of 1000 to 5000 nM.

On to `CC(C)c1cc(C#N)c(F)c(C(C)C)c1CC(=O)NS(=O)(=O)c1ccc(S(N)(=O)=O)cc1CO` [Compound 126], for which the half-inhibitory concentration (IC50) in data set [1] (given as numeric bound) was greater than 100000 nM.

As for `CNS(=O)(=O)c1ccc(S(=O)(=O)NC(=O)Cc2c(C(C)C)cc(C#N)c(F)c2C(C)C)c(CO)c1` [Compound 127], the Kp at 8 h in data set [2] was determined as 197. In data set [1] (class symbols), this compound gave an IC50 of 200 to 1000 nM.

For the compound `CNS(=O)(=O)c1ccc(S(=O)(=O)NC(=O)Cc2c(C(C)C)cc(C#N)c(F)c2C(C)C)cc1CO` [Compound 128], the Kp at 8 h in data set [2] turned out to be 1180. This compound showed an IC50 in data set [1] (class symbols) of 200 to 1000 nM.

In turn, `CNS(=O)(=O)c1cc(CO)cc(S(=O)(=O)NC(=O)Cc2c(C(C)C)cc(C#N)c(F)c2C(C)C)c1` [Compound 129] came in with an IC50 in data set [1] (class symbols) of 1000 to 5000 nM.

As for `CC(C)c1cc(C#N)cc(C(C)C)c1CC(=O)NS(=O)(=O)c1cc(CO)c(C(C)(C)O)cc1F` [Compound 130], the IC50 in data set [1] (class symbols) fell in the range of 1000 to 5000 nM.

The compound `CC(C)c1cc(C#N)c(F)c(C(C)C)c1CC(=O)NS(=O)(=O)c1ccc(S(N)(=O)=O)c(CO)c1` [Compound 131] came in with an IC50 in data set [1] (class symbols) of 1000 to 5000 nM.

Consider `CNC(=O)c1cc(S(=O)(=O)NC(=O)Cc2c(C(C)C)cc(C#N)c(F)c2C(C)C)ccc1S(=O)(=O)NC` [Compound 132], for which the concentration for half-maximal inhibition (IC50) in data set [1] (class symbols) lay within 5000 to 30000 nM.

Regarding `CC(C)c1cc(C#N)c(F)c(C(C)C)c1CC(=O)NS(=O)(=O)c1ccc(CN(C)C)c(CO)c1` [Compound 133], the IC50 in data set [1] (class symbols) lay in the range of 1000 to 5000 nM.

Take `CC(C)c1cc(C#N)cc(C(C)C)c1CC(=O)NS(=O)(=O)c1sc(C(C)(C)O)nc1CO` [Compound 134]: the IC50 in data set [1] (class symbols) was 1000 to 5000 nM.

As to `CC(C)c1c(F)c(C#N)c(F)c(C(C)C)c1CC(=O)NS(=O)(=O)c1sc(C(C)(C)O)nc1CO` [Compound 135], the IC50 in data set [1] (class symbols) is 200 to 1000 nM.

For the compound `CC(C)c1cc(C#N)c(F)c(C(C)C)c1CC(=O)NS(=O)(=O)c1sc(C(C)(C)O)nc1CO` [Compound 136], in data set [1] (class symbols), the IC50 is 200 to 1000 nM.

On to `CC(C)c1cc(C#N)cc(C(C)C)c1CC(=O)NS(=O)(=O)c1ccc(CN(C)C)c(CO)c1` [Compound 137], for which the IC50 in data set [1] (class symbols) is 5000 to 30000 nM.

Compound `CC(C)c1cc(C#N)c(F)c(C(C)C)c1CC(=O)NS(=O)(=O)c1ccc(C(C)(C)O)c(CO)c1` [Compound 138] came in with an IC50 in data set [1] (class symbols) of 1000 to 5000 nM.

For `CNS(=O)(=O)c1ccc(S(=O)(=O)NC(=O)Cc2c(C(C)C)cc(COC3CCCC3)cc2C(C)C)c(CO)c1` [Compound 140], in data set [2], the Kp at 8 h turned out to be 558. The same compound showed an IC50 in data set [1] (class symbols) of 40 to 200 nM.

In data set [1] (class symbols), `CC(C)c1cc(-c2ccc3c(c2)OC(F)(F)O3)cc(C(C)C)c1CC(=O)NS(=O)(=O)c1sc(C(C)(C)O)nc1CO` [Compound 142] displayed an IC50 of 8 to 40 nM.

(Values after US20210395241A1, “NLRP MODULATORS” (Novartis AG, priority 2018, published 2021).)
